# Measurements: PMC7125190, “Native/citrullinated LL37-specific T-cells help autoantibody production in Systemic Lupus Erythematosus” (Scientific Reports, 2020)
# Non-standard residues stand in square brackets, D forms with d. Residues, ends and D or L forms follow the SMILES beside them. No end group written: not given here. Cit = NC(=O)NCCC[C@H](N)C(=O)O
# Columns and labels:
# [1] = biological target: T1, HLA-DR15 (DRB1*1501) (Homo sapiens, UniProt P01903+P01911); experiment: HLA-DR folding assay (LOCI/AlphaScreen) peptide binding; conditions: axis "Peptide (nM)", LOCI, 48 h at 18 °C, L243 acceptor beads, five-fold titrations, one representative experiment of two shown, read-out: average Ko
# T1 construct: made in house; host or cells: E. coli
# Procedure: (§1) Human recombinant HLADRA1*01:01, HLA-DRB1*01:01, and HLA-DRB1*15:01 were expressed in E. coli and purified in a series of liquid chromatography based steps[71].
# (§2) We performed peptide-MHC binding assays by two different protocols by ImmunAware, Denmark and Benaroya Institute (USA). In the first protocol, binding was measured using a Luminescent Oxygen Channelling Immunoassay (LOCI), marketed by Perkin Elmer as AlphaScreen[72]. This is a nonradioactive bead-based homogenous proximity assay, where the donor beads containing a photosensitizer compound upon excitation with light at a 680 nm wavelength, converts ambient oxygen to energy-rich, short-lived singlet oxygen; that is transferred to a acceptor beads in close proximity only. The acceptor beads can respond to singlet oxygen with a luminescence/ fluorescence cascade leading to an amplified signal in the 520–620 nm range. As one tag binding to the donor beads: a biotin group engineered unto the HLA β chain. As the other tag binding to the acceptor beads: conformation-dependent HLA class II specific antibody (L243). Thus, only when a fully folded complex is present will the donor and acceptor beads come in sufficient close proximity and give a measurable signal. Biotinylated recombinant HLA class II molecules were diluted from an 8 M urea buffer into a folding buffer (PBS, 20% glycerol, Protease inhibitor mix) with peptide concentrations ranging from 0.13 nM to 10,000 nM. The analysed peptides were tested in 5-to-8 five-fold concentration titrations spanning from 20 μM to 0.3 nM. The reaction mixtures were incubated for 48 h at 18 °C to allow for peptide-HLA complex formation reaching steady state. After incubation, 15 μL of the folding mixture was transferred to a 384-well Optiplate (PerkinElmer) followed by addition of 15 μL of a solution containing L243 acceptor beads and streptavidin donor beads (final concentration of beads was 5 μL/mL). The plates were incubated over night at 18 °C, and then measured in enVisionTM, Perkin Elmer. Assay signals measured in […] were plotted against the offered peptide concentrations, and analyzed by non-linear regression using GraphPad Prism. […]
# (§3) Figure S7. […] (A,B) Binding of LL37-peptides to HLA-DR1 (DRB1*0101) and to HLA-DR15 (DRB1*1501) was evaluated by a HLA-DR folding assays and detected by Luminescent Oxygen Channelling Immunoassay (LOCI) described in MM. […] (C-F) Binding to DR16 (DRB1*1601), DRB5 (HLA-DRB5*0101), DR4 (HLA-DRB1*0401) and DR10 (DRB1*1001) was evaluated by peptide competitionassay as in MM, and evaluated fluorimetrically. […]
# [2] = biological target: T2, HLA-DR1 (DRB1*0101) (Homo sapiens, UniProt P01903+P01911, A100R/D57E/F55L/F60I/F76Y/I96L/L162R/M171V/P40L/Q125E/R42F/V115G/Y59C); experiment: as above; conditions: axis "Peptide (nM)", LOCI, 48 h at 18 °C, L243 acceptor beads, five-fold titrations, one representative experiment of two shown, read-out: average Ko
# T2 construct: made in house; host or cells: E. coli
# Procedure: as §1, §2, §3
# [3] = test system: SLE/CLE CD4+ T-cell clones; experiment: T-cell clone reactivity (BrdU, HLA-matched B-LCLs pulsed with peptide); type: cell-based, human; conditions: clones from one SLE and one CLE patient
# Procedure: PBMCs were purified, from EDTA-treated blood, on Ficoll-Hypaque (Pharmacia Fine Chemicals, Uppsala, Sweden) were incubated (10^5 cells/well) in 96-well-flat-bottom-microplates (BD) in T cell-medium (RPMI 1640, 10% heat-inactivated human serum, HS, Gibco), 2 mM L-glutamine, 10 U/mL penicillin, and 100 μg/mL streptomycin), with/without peptides. We performed assays on fresh cells, within 1-to-3 hours from collection, or on PBMCs frozen in 90% FCS-10%DMSO, whose viability we assessed by Trypan blue exclusion, at inverted microscope. Recovery of live cells was between 65 and 85 % of the frozen number. At day3 and 5, BrdU was added (1 μg/mL). BrdU-incorporation was detected by APC-labeled anti-BrdU antibody (BD Pharmingen), after surface staining by flow cytometry. Internal control for T-cell viability and proliferation was PHA treatment (2 μg/mL). SI for proliferation was calculated by dividing percent of BrdU-staining in the presence of each peptide used to stimulate cells by percent of BrdU-staining in the absence of peptide stimulation. SI for proliferation was considered positive when>3. This cut-off was obtained by calculating the mean+2DS [1.5 + 2 (0.6)] (of the stimulation indexes calculated as above) of the proliferation of HD. […]
# Assays were repeated twice with each patient. […] Ror-ɣt and Bcl-6 were measured by intracellular staining and flow cytometry, after 48 hours culture with LL37 or control antigen, and were analyzed on CD38highCD4 T-cells. […]
# PBMCs were stimulated (2x10^6 cells/mL) with LL37 for 7 days and re-stimulated (10 days) with LL37-pulsed (10 µg/mL) autologous-ɣ-irradiated-(30Gy)-PBMCs in T-cell medium in the presence of human/recombinant (hr)IL-2 (Boehringer-Mannheim, Indian, USA). T cell lines-specificity was analyzed by using peptide-pulsed (0.1-10 µg/mL) autologous-irradiated PBMCs (30Gy) or lymphoblastoid-cell-lines (B-LCLs) (150Gy, 33). […]
# analyzed by flow-cytometry (after staining by BrdU-detection kit, BD Pharmingen). […] Clones reactivity and HLA-restriction were analyzed using HLA-matched-homozigous B-LCLs, pulsed with […]
# [4] = test system: CD3+CD4+ T-cells; experiment: T-cell proliferation assay (BrdU incorporation of PBMC); type: cell-based, human; conditions: SLE/CLE PBMC, day 6, BrdU
# Procedure: PBMCs were purified, from EDTA-treated blood, on Ficoll-Hypaque (Pharmacia Fine Chemicals, Uppsala, Sweden) were incubated (10^5 cells/well) in 96-well-flat-bottom-microplates (BD) in T cell- […]
# penicillin, and 100 μg/mL streptomycin), with/without peptides. We performed assays on fresh cells, within 1-to-3 hours from collection, or on PBMCs frozen in 90% FCS-10%DMSO, whose viability we assessed by Trypan blue exclusion, at inverted microscope.
# At day3 and 5, BrdU was added (1 μg/mL). BrdU-incorporation was detected by APC-labeled anti-BrdU antibody (BD Pharmingen), after surface staining by flow cytometry. Internal control for T-cell viability and proliferation was PHA treatment (2 μg/mL). SI for proliferation was calculated by dividing percent of BrdU-staining in the presence of each peptide used to stimulate cells by percent of BrdU-staining in the absence of peptide stimulation. SI for proliferation was considered positive when>3. This cut-off was obtained by calculating the mean+2DS [1.5 + 2 (0.6)] (of the stimulation indexes calculated as above) of the proliferation of HD.
# Basal % of proliferation was set using, as reference, an isotype matched antibody staining (APC- […]
# Assays were repeated twice with each patient. In rare cases in which background proliferation exceed antigen-specific proliferation the assay was repeated three times. Concomitant phenotype analysis of LL37-responder T-cells included staining for CD4, CD8, CXCR5, PD1, ICOS, CCR6. […]
# [5] = test system: serum antibodies (anti-native LL37/anti-cit-LL37); experiment: ELISA for autoantibody detection in sera; type: binding, human; conditions: for Antibody response to control peptides in SLE: SLE sera, ELISA OD
# Procedure: Anti-native/cit-LL37, other antigen antibodies (anti-DNA and anti-RNA), and total anti-human IgG were measured by ELISA as described. Briefly, 96-well flat-bottom plates (Non-Binding surface polystyrene, Corning, USA) are coated with 2 μg/mL of native LL37/cit-LL37 or control proteins or human DNA or human RNA[9] or anti-human IgG antibody (Sigma) in carbonate buffer (0.1 M NaHCHO3, pH 9) for 2 hours (or over night) and washed four times with PBS 0.1% Tween-20. This washing buffer was used for washing at all steps. The blocking buffer containing 2% bovine serum albumin (BSA, Sigma) in PBS was used for at least 1 hour (or over night) to saturate unspecific binding sites. After washing, sera were diluted at various concentrations (usually 1:100 or 1:200) in PBS 2% BSA (cell culture supernatants were diluted 1:2, 1:4 or 1:10) followed by 1 hour incubation with a horseradish peroxidase–conjugated (HRP) goat anti-human IgG (Sigma-Aldrich), diluted 1:10,000 in PBS. The color was developed for 5 minutes with 3,3’,5,5’-tetramethylbenzidine (TMB) substrate (Sigma-Aldrich). The reaction was stopped by adding 50 μl of 2 N H2SO4, and absorbance determined at 450 nm with a reference wavelength of 540 nm. Anti-dsDNA in sera of lupus patients were detected by the standard clinical test Kallestad Crithidia luciliae Complete Kits for detection and semi-quantitation of autoantibodies to native DNA (nDNA) antigens by indirect fluorescence antibody (IFA) procedure. ELISA for detection of anti-tetanus antibodies (anti-TT) was from Abnova (Taiwan).
# [6] = test system: DNA; conditions: cited from earlier work
compound,measurement,setting,value
CC[C@H](C)[C@H](NC(=O)[C@H](CCCCN)NC(=O)[C@H](CCC(=O)O)NC(=O)[C@H](CCCCN)NC(=O)[C@H](CO)NC(=O)[C@H](CCCCN)NC(=O)[C@H](CCCNC(N)=O)NC(=O)[C@H](Cc1ccccc1)NC(=O)[C@H](Cc1ccccc1)NC(=O)[C@H](CC(=O)O)NC(=O)CNC(=O)[C@H](CC(C)C)NC(=O)[C@@H](N)CC(C)C)C(=O)NCC(=O)N[C@@H](CCCCN)C(=O)O [cit-P1] (H-LLGDFF[Cit]KSKEKIGK-OH),Kd,[1],3440 nM
CC(C)C[C@H](NC(=O)[C@H](Cc1ccccc1)NC(=O)[C@H](CC(=O)O)NC(=O)[C@@H](N)CCCCN)C(=O)N[C@@H](CCCNC(N)=O)C(=O)N[C@@H](CC(N)=O)C(=O)N[C@@H](CC(C)C)C(=O)N[C@H](C(=O)N1CCC[C@H]1C(=O)N[C@@H](CCCNC(N)=O)C(=O)N[C@H](C(=O)N[C@@H](CCC(=O)O)C(=O)N[C@@H](CO)C(=O)O)[C@@H](C)O)C(C)C [cit-P7] (H-KDFL[Cit]NLVP[Cit]TES-OH),Kd,[2],305 nM
"CPKYVKQNTLKLATG [HA306–320, promiscuously presented peptide derived from the hemoagglutinin protein of Influenza A, reference compound]",T-cell clone reactivity,[3],did not cross-react
"GIINTLQKYYCRVRGGRCAVLSCLPKEEQIGKCSTRGRKCCRRKK [HBD3, control unrelated AMP human β-defensin-3, reference compound]",T-cell response to control or short peptides,[4],not significant
KDFLRNLVPRTES [P7],Kd,[2],60 nM
LLGDFFRKSKEKIGK [P1],Kd,[1],700 nM
"SETR(cit)PVLNR(cit)LFDKIR(cit)QVIR(cit)KEFEKGIKEKSKR(cit)FFDGLL [cit-REV, citrullinated REV peptide, reference compound]",RA sera with antibody reactivity,"[5]; RA sera, 14 of 70",20%
same,Antibody response to control peptides in SLE,[5],negative
"SETRPVLNRLFDKIRQVIRKEFEKGIKEKSKRFFDGLL [REV, reference compound]",T-cell response to control or short peptides,[4],did not elicit T-cell responses
same,Antibody response to control peptides in SLE,[5],negative
same,DNA-binding activity,[6],retains DNA-binding activity
